Experimental data from paper PMC4122966, “Novel VCP modulators mitigate major pathologies of rd10, a mouse model of retinitis pigmentosa” (Scientific Reports, 2014).
Several values for one entry are separate records, joined by “and”; a condition that tells them apart may be missing. Identical values can stand only once.

Key:
retinal neuronal cells = assay: retinal organ culture with NMDA insult; type: cell-based, mouse; details: 200 µM NMDA, 50 µM KUS121, 4 days
Description: Supplementary Figure Legends
Supplementary Figure 1 Inhibitory effects of KUS121, KUS187, and DBeQ on the ATPase activity of recombinant VCP purified from E. coli.
Supplementary Figure 2 (a) HeLa cells were cultured in medium with low glucose (0.25 g/l) for 20 hours, with or without KUSs, and ATP levels were measured with luciferase assays. *** P < 0.005 vs. DMSO control (Dunnett’s test, n=3). HG: medium with 4.5 g/l glucose. Error bars indicate SD. (b) HeLa cells were cultured in medium with low glucose (0.2 g/l) for 20 hours, with DMSO or KUSs, and ATP and ADP levels were measured by HPLC. The respective ratios of ATP/ADP are shown. * P < 0.05, ** P < 0.01 vs. DMSO control (Dunnett’s test, n=3). Error bars indicate SD. (c) HeLa cells were cultured in medium without glucose for 6 hours, with (50 µM each KUS, as indicated) or without KUSs, and acetyl-CoA levels were measured by HPLC.
Supplementary Figure 3 Immunohistochemical analyses of retinal neuronal cells.
Retinal sections of 5-month-old C57BL/6 mice were stained with (b) or without (a) an anti-VCP antibody12, developed with diaminobenzidine and counter-stained with hematoxylin (a, b). Note that all retinal neuronal cells highly expressed VCP. GCL: ganglion cell layer, IPL: inner plexiform layer, INL: inner nuclear layer, OPL: outer plexiform layer, ONL: outer nuclear layer, IS: inner segment, OS: outer segment.
Retinas from adult C57BL/6 mice were cultured on porous membrane with 200 µM of NMDA with or without KUS121 (50 µM) for 4 days. (a) HE-stained retinal sections.
In the retina cultured with KUS121, the inner nuclear layer (INL), inner plexiform layer (IPL), ganglion cell layer (GCL), and retinal nerve fiber layer (RNFL) were thicker than that of the retina without KUS121. (b) TUNEL staining of the retinal […]
Supplementary Figure 5 (a) Cross sectional (vertical) images obtained by spectral-domain optical coherence tomography (SD-OCT) in 21-day-old C57BL/6 wild-type (WT) and rd10 mice with or without KUSs. […] (c) The mean amplitude of the a-wave (measured at 25 msec), which is derived from photoreceptors, in KUS-treated […]

HeLa cells = assay: protection from cell death in low glucose medium (WST); type: cell-based; details: low glucose 0.2 g/l, 5, 10, 20, and 50 μM, 41 hours
Description: Figure 2 Prevention of cell death and ER stress by KUSs. (a) Photographs of HeLa cells, cultured with DMSO (DMSO) or KUSs (KUS94, KUS121, and KUS187, 20 μM each) for 41 hours in low glucose (0.2 g/l) medium. Scale bar, 100 μm. (b–e) WST (water-soluble tetrazolium salts) values reflecting relative live cell numbers are shown, as optical density (OD) at 450 nm. Error bars indicate SD. (b) WST values of HeLa cells, cultured in low glucose (0.2 g/l) with DMSO (control) or KUSs (50 μM for KUS121; 20 μM for KUS69, KUS94, and KUS187, n = 3) for 41 hours. (c) Cell viability, indicated by WST values of HeLa cells, cultured with tunicamycin (Tm) (0.2 μg/ml) for 41 hours with KUSs (20 μM each, n = 3). […]
HeLa, HEK293, and PC12 cells were cultured in Dulbecco's modified Eagle's medium (DMEM) with 10% fetal bovine serum. […] Viability of cultured cells was measured by formazan production with an ARVO multilabel counter (Wallac), using WST (water soluble tetrazolium salts)-8 reagent (Cell count reagent SF, Nacalai Tesque, Kyoto, Japan). ATP in cultured cells was measured by luciferase activities with an ARVO multilabel counter, using ATP assay reagent for cells (Toyo B-net, Tokyo, Japan). Acetyl-CoA was measured using a PicoProbe Acetyl CoA assay kit (BioVision, CA, USA) with a Spectra Max multilabel counter (Molecular Devices, CA, USA).

recombinant VCP = recombinant VCP (Homo sapiens, UniProt P55072); assay: ATPase activity of recombinant VCP in vitro (modified molybdate assay, [γ-32P]ATP); type: biochemical
Description: We measured ATPase activities by modifying the molybdate assay, which was as described previously. In the assay, 1 μg of whole cell soluble lysate of neuronally differentiated PC12 cells, or 500 ng recombinant VCP protein, was incubated in 20 μl of the ATPase assay buffer (20 mM HEPES (pH 7.4), 50 mM KCl, 5 mM MgCl2) with 100 μM [γ-^32P]ATP (18.5 GBq/mmol) (PerkinElmer) at 37°C for 20 min. After incubation, the reaction was quenched by addition of 200 μl of 8% ice-cold trichloroacetic acid solution with 1 mM K2HPO4, and then 50 μl of solution A (3.75% ammonium molybdate, 0.02 M silicotungstic acid in 3 N H2SO4) and 300 μl of n-butyl acetate were added to the reaction. The samples were mixed well and centrifuged at 12,000 × g for 1 min. Then, 200 μl aliquots from the upper organic phases were taken and their radioactivity was determined with a liquid scintillation counter for β-radiation, which determined the amounts of ^32P released.

Sequence of recombinant VCP (P55072 whole entry, species assumed): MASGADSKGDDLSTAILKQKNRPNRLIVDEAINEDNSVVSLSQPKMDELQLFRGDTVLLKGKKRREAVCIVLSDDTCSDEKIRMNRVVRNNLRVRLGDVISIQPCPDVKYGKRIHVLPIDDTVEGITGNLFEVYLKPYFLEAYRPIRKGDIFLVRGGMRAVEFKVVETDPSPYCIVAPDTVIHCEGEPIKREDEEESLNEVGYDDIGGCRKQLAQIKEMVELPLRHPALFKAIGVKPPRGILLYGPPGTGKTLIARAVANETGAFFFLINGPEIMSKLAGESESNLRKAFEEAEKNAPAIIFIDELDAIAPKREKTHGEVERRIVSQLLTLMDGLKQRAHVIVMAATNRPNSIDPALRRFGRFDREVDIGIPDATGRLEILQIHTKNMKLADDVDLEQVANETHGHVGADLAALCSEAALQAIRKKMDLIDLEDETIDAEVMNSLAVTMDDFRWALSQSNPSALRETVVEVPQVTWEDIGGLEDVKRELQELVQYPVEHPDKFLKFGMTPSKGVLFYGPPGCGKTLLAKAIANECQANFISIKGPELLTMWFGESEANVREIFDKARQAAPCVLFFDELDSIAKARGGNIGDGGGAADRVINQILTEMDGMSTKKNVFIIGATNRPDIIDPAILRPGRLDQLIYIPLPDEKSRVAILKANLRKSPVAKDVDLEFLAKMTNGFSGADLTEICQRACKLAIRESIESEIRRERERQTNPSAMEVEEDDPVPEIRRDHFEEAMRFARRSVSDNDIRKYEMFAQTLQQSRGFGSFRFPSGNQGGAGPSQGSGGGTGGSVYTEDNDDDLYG

Cc1cc(F)ccc1-c1ccc(/N=N/c2cc(S(=O)(=O)O)c3ccccc3c2N)cn1 [KUS121]
TUNEL-positive apoptotic cells (retinal neuronal cells): More TUNEL-positive apoptotic cells (green) were observed in the retina
thickness of INL, IPL, GCL and RNFL (HE-stained sections) (retinal neuronal cells; vs retina without KUS121): thicker
protection of retinal neuronal cells from NMDA insult (retinal neuronal cells; retinas from adult C57BL/6 mice): protects retinal neuronal cells from NMDA insult
dose dependence of protective effect (HeLa cells): dose-dependent
IC50 (recombinant VCP): 200 to 300 nM and 330 nM
